Measured values reported in US20070134261A1, “Effectors of innate immunity” (priority 2001, published 2007).
Values after ≈ are worked out from the molar mass of the structure shown. Residues, ends and D or L forms follow the SMILES beside them. No end group written: not given here.

Experiments:
[1] = system: human bronchial epithelial cells (HBE); experiment: LDH release assay (Cytotoxicity Detection Kit); format: cell-based; conditions: 24 hours; for LDH Release (OD490 nm): 100 μg/ml, no peptide control 1.0 ± 0.05
Description: (§1) The potential toxicity of the peptides was measured in two ways. First, the Cytotoxicity Detection Kit (Roche) (Lactate dehydrogenase-LDH) Assay was used. It is a colorimetric assay for the quantification of cell death and cell lysis, based on the measurement of LDH activity released from the cytosol of damaged cells into the supernatant. LDH is a stable cytoplasmic enzyme present in all cells and it is released into the cell culture supernatant upon damage of the plasma membrane. An increase in the amount of dead or plasma membrane-damaged cells results in an increase of the LDH enzyme activity in the culture supernatant as measured with an ELISA plate reader, OD490 nm (the amount of color formed in the assay is proportional to the number of lysed cells). In this assay, human bronchial epithelial cells (I6HBEo14, HBE) cells were incubated with 100 μg of peptide for 24 hours, the supernatant removed and tested for LDH. The other assay used to measure toxicity of the cationic peptides was the WST-1 assay (Roche). This assay is a colorimetric assay for the quantification of cell proliferation and cell viability, based on the cleavage of the tetrazolium salt WST-1 by mitochondrial dehydrogenases in viable cells (a non-radioactive alternative to the [^3H]-thymidine incorporation assay). In this assay, HBE cells were incubated with 100 μg of peptide for 24 hours, and then 10 μl/well Cell Proliferation Reagent WST-1 was added. The cells are incubated with the reagent and the plate is then measured with an ELISA plate reader, OD490 nm.

[2] = system: HBE cells; experiment: WST-1 assay (cell viability); format: cell-based, human
Description: as §1

[3] = format: cell-based; conditions: 24 h
[4] = system: A549 epithelial cells; experiment: Human Operon arrays (PRHU04-S1) of A549 cells treated with peptide alone (Tables 31-37, 53); conditions: peptide 50 μg/ml, 4 h, A549 cells
[5] = system: human PBMC; experiment: TLR agonist / cytokine induced cytokine secretion by PBMC (ELISA, multiplex bead immunoassay); format: cell-based
Description: All assays were performed in triplicate.

| Compound | LDH Release (OD490 nm) [1] | OD490 nm (WST-1 cell viability) [2] | MIC, C. rhod. [3] | MIC, E. coli [3] | MIC, EHEC [3] | MIC, P. aerug. [3] | MIC, S. aureus [3] | MIC, S. typhim. [3] | also measured |
| --- | --- | --- | --- | --- | --- | --- | --- | --- | --- |
| RPAWKYWWPWPWPRRK [SEQ ID NO: 22] | 1.29 ± 0.12 OD490 nm | 1.33 ± 0.07 OD490 nm | 4 µg/mL | 8 µg/mL | 4 µg/mL | 24 µg/mL | 12 µg/mL | 8 µg/mL | ID#:ctrl intensity ratio, X65962 cytochrome P-450 [4]: 5.1 |
| 5′-TCATGACGTTCCTGACGTT-3′ (chemistry not given here) [CpG, reference compound] |  |  |  |  |  |  |  |  | IL-6, Ave pg/ml ([5]; 4 hr, CpG −SEQ ID NO: 1): <7 pg/mL; IL-8, Ave pg/ml ([5]; 4 hr, CpG −SEQ ID NO: 1): 20 pg/mL; TNF-α, Ave pg/ml ([5]; 4 hr, CpG −SEQ ID NO: 1): 28 pg/mL; IL-6, Ave pg/ml ([5]; 24 hr, CpG −SEQ ID NO: 1): 66 pg/mL; IL-8, Ave pg/ml ([5]; 24 hr, CpG −SEQ ID NO: 1): 339 pg/mL; TNF-α, Ave pg/ml ([5]; 24 hr, CpG −SEQ ID NO: 1): 28 pg/mL |
| ELPLKRGRVPVE [SEQ ID NO: 16] | 0.91 ± 0.04 OD490 nm | 1.39 ± 0.26 OD490 nm |  |  |  |  |  |  | ID#:ctrl intensity ratio, M14565 cytochrome P450 [4]: 10.1 |
| RPRYPWWPWWPYRPRK [SEQ ID NO: 19] | 1.08 ± 0.02 OD490 nm | 1.42 ± 0.15 OD490 nm | 4 µg/mL | 8 µg/mL | 4 µg/mL | 16 µg/mL | 16 µg/mL | 64 µg/mL | ID#:ctrl intensity ratio, X65962 cytochrome P-450 [4]: 3.8 |
| TNF-α |  |  |  |  |  |  |  |  | IL-1β, Ave pg/ml ([5]; 4 hr, TNF-α −SEQ ID NO: 1): 74 pg/mL; IL-8, Ave pg/ml ([5]; 4 hr, TNF-α −SEQ ID NO: 1): 54 pg/mL; IL-1β, Ave pg/ml ([5]; 24 hr, TNF-α −SEQ ID NO: 1): 94 pg/mL; IL-6, Ave pg/ml ([5]; 24 hr, TNF-α −SEQ ID NO: 1): 9 pg/mL; IL-8, Ave pg/ml ([5]; 24 hr, TNF-α −SEQ ID NO: 1): 4410 pg/mL |
| KTKKFAKMLMMALKKVVSTAKPLAILS [SEQ ID NO: 42] | 3.4 ± 0.2 OD490 nm | 0.39 ± 0.08 OD490 nm | 2 µg/mL | 1.5 µg/mL | 1 µg/mL | 4 µg/mL | 64 µg/mL | 2 µg/mL | toxicity / membrane damage ([1]; as measured by both assays (LDH, WST-1), HBE cells): did induce membrane damage |
| KESIKVIIRGMMVRMKK [SEQ ID NO: 35] | 0.88 ± 0.03 OD490 nm | 1.00 ± 0.08 OD490 nm | 8 µg/mL | 4 µg/mL | 4 µg/mL | 64 µg/mL | 128 µg/mL | 8 µg/mL |  |
| RRAWWKAWWARRK [SEQ ID NO: 20] | 1.05 ± 0.03 OD490 nm | 1.61 ± 0.21 OD490 nm | 16 µg/mL | 8 µg/mL | 8 µg/mL | 8 µg/mL | 8 µg/mL | 8 µg/mL |  |
| RAAFKWAWAWWRRK [SEQ ID NO: 23] | 1.26 ± 0.46 OD490 nm | 1.14 ± 0.24 OD490 nm | 4 µg/mL | 4 µg/mL | 4 µg/mL | 8 µg/mL | 8 µg/mL | 16 µg/mL |  |
| CC[C@H](C)[C@H](NC(=O)CNC(=O)[C@H](CCCNC(=N)N)NC(=O)[C@H](CCSC)NC(=O)[C@H](CO)NC(=O)[C@@H](NC(=O)[C@H](CCCNC(=N)N)NC(=O)[C@H](CCCNC(=N)N)NC(=O)[C@@H](NC(=O)[C@H](CS)NC(=O)[C@H](Cc1c[nH]cn1)NC(=O)[C@@H](N)CCCNC(=N)N)[C@@H](C)CC)C(C)C)C(=O)N[C@H](C(=O)N[C@@H](CCSC)C(=O)N[C@@H](CCCNC(=N)N)C(=O)N[C@@H](CCCNC(=N)N)C(=O)N[C@@H](CS)C(=O)N[C@@H](CCCCN)C(=O)O)[C@@H](C)CC [SEQ ID NO: 38] (H-RHCIRRVSMRGIIMRRCK-OH) | 0.95 ± 0.02 OD490 nm | 1.83 ± 0.03 OD490 nm | 8 µg/mL (≈ 3.52 µM) | 0.5 µg/mL (≈ 0.22 µM) | 4 µg/mL (≈ 1.76 µM) | 64 µg/mL (≈ 28.2 µM) | 32 µg/mL (≈ 14.1 µM) | 4 µg/mL (≈ 1.76 µM) |  |
